What was measured:
VEGFR-2/KDR = assay: Ex vivo bioassay of cellular VEGFR-2/KDR kinase inhibition with patient plasma in TrkA-VEGFR-2/KDR chimeric PAE cells; format: cell-based
Procedure: Pharmacokinetic parameters calculated after a single dose of CEP-11981 included area under the plasma drug concentration versus time curve (AUC) from zero to infinity (AUC0-∞), to the last measurable concentration (AUC0-t), and to 24 h (AUC0–24); maximum observed plasma drug concentration (Cmax); time to maximum observed plasma drug concentration (Tmax); terminal elimination half-life (t½); and predicted accumulation ratio (Rpred), which was defined as AUC0–∞ (day 1, cycle 1)/AUC0–24 (day 1, cycle 1). Pharmacokinetic parameters calculated after multiple doses included AUC0-t, Cmax, Tmax, and t½, and observed accumulation ratio (Robs). Robs was defined as AUC for 1 dosing interval following multiple doses (AUCτ; day 15, cycle 1)/AUC0–24 (day 1, cycle 1). […] Pharmacodynamics was assessed by VEGFR-2/KDR inhibitory activity in response to CEP-11981 treatment.
The venous blood samples for pharmacokinetic analysis were collected on days 1 and 15 of dosing during cycle 1 immediately before dose administration and at 0.5, 1, 1.5, 2, 3, 4, 6, 8, 12 (this sample was optional and could be collected from 10 to 14 h), and 24 h postdose, as well as on days 8, 22, 29, and 43. The venous blood samples for pharmacokinetic-pharmacodynamic analysis were collected on days 1 and 15 of dosing during cycle 1 immediately before dose administration and at 1 h postdose, and on day 43. At each draw, 2 samples were obtained in 6-mL sodium heparinized vacutainers. Plasma was obtained and stored at −70 °C until shipment to the sponsor for analysis.
A bioassay with engineered chimeric porcine aortic endothelial (PAE) cell lines stably expressing a TrkA-VEGFR-2/KDR domain was used to evaluate human plasma-associated shifts in cellular IC50 for CEP-11981 inhibition of ligand-stimulated VEGFR-2/KDR phosphorylation. Plasma samples for the bioassay were obtained 1 h postdose and on days 1 and 15; they were collected from patients across cohorts.

[1] = Plasma pharmacokinetics in patients, single and multiple doses; format: in vivo, human; conditions: for Mean (SD) Robs (observed accumulation ratio): multiple doses, AUCτ day 15/AUC0–24 day 1; for Mean (SD) Rpred (predicted accumulation ratio): AUC0–∞/AUC0–24 day 1
Procedure: Pharmacokinetic parameters calculated after multiple doses included AUC0-t, Cmax, Tmax, and t½, and observed accumulation ratio (Robs). […] Pharmacodynamics was assessed by VEGFR-2/KDR inhibitory activity in response to CEP-11981 treatment. […] The venous blood samples for pharmacokinetic-pharmacodynamic analysis were collected on days 1 and 15 of dosing during cycle 1 immediately before dose administration and at 1 h postdose, and on day 43. At each draw, 2 samples were obtained in 6-mL sodium heparinized vacutainers. Plasma was obtained and stored at −70 °C until shipment to the sponsor for analysis.

[2] = multiple doses (day 15, cycle 1), oral once daily, 3.0 mg/m^2, n = 3
[3] = multiple doses (day 15, cycle 1), oral once daily, 4.2 mg/m^2, n = 3
[4] = multiple doses (day 15, cycle 1), oral once daily, 5.9 mg/m^2, n = 5
[5] = multiple doses (day 15, cycle 1), oral once daily, 11.8 mg/m^2, n = 3
[6] = multiple doses (day 15, cycle 1), oral once daily, 19.7 mg/m^2, n = 3
[7] = multiple doses (day 15, cycle 1), oral once daily, 29.6 mg/m^2, n = 4
[8] = multiple doses (day 15, cycle 1), oral once daily, 41.4 mg/m^2, n = 3
[9] = multiple doses (day 15, cycle 1), oral once daily, 55.0 mg/m^2, n = 4
[10] = multiple doses (day 15, cycle 1), oral once daily, 73.0 mg/m^2, n = 3
[11] = multiple doses (day 15, cycle 1), oral once daily, 126.6 mg/m^2, n = 2
[12] = single dose, oral, 3.0 mg/m^2, n = 3
[13] = single dose, oral, 4.2 mg/m^2, n = 3
[14] = single dose, oral, 5.9 mg/m^2, n = 5
[15] = single dose, oral, 11.8 mg/m^2, n = 3
[16] = single dose, oral, 19.7 mg/m^2, n = 3
[17] = single dose, oral, 29.6 mg/m^2, n = 4
[18] = single dose, oral, 41.4 mg/m^2, n = 3
[19] = single dose, oral, 55.0 mg/m^2, n = 5
[20] = single dose, oral, 73.0 mg/m^2, n = 3
[21] = single dose, oral, 126.6 mg/m^2, n = 2

Sequence of VEGFR-2/KDR (P35968 786-1356 limits assumed): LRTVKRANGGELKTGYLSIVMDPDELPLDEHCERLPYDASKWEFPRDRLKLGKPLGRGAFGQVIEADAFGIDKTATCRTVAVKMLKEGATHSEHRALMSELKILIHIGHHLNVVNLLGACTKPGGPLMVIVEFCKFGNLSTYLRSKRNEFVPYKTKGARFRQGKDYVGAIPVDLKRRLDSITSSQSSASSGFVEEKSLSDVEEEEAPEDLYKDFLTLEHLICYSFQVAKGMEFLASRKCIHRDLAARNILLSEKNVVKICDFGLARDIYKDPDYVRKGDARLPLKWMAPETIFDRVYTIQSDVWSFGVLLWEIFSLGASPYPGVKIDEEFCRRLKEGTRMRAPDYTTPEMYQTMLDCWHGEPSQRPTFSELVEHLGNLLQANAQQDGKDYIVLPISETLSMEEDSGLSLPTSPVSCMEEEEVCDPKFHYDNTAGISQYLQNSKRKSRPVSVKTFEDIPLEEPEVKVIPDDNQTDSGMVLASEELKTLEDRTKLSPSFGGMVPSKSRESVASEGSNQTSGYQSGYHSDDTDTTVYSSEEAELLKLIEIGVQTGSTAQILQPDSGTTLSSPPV

Substance: 11-(2-methylpropyl)-12,13-dihydro-2-methyl-8-(pyrimidin-2-ylamino)-4H-indazolo[5,4-a]pyrrolo[3,4-c]carbazol-4-one [CEP-11981]
- Patients with quintile 5 ex vivo VEGFR-2/KDR inhibition (VEGFR-2/KDR; 97.4 mg/m^2): 3 of 5
- Patients with quintile 5 ex vivo VEGFR-2/KDR inhibition (VEGFR-2/KDR; 126.6 mg/m^2): 1 of 1
- Inhibition of VEGFR-2/KDR kinase (VEGFR-2/KDR; plasma from lower dose cohorts (3.0, 4.2, 5.9, 11.8, and 19.7 mg/m^2), normalized to predose baseline): Less than 50%
- Normalized mean cellular VEGFR-2/KDR inhibition (VEGFR-2/KDR; plasma primarily from 73.0, 97.4, and 126.6 mg/m^2 cohorts (quintile 5)): ≥ 81%
- Mean (SD) AUC0-24 ([1]; human, in vivo, po, 97.4 mg/m2): 5,320.4 (1,459.11) ng•hr/mL
- Mean (SD) Cmax ([1]; human, in vivo, po, 97.4 mg/m2): 526.4 (185.68) ng/mL
- Mean (SD) t½ ([1]; human, in vivo, po, 97.4 mg/m2): 10.3 (4.59) hr
- Median (range) Tmax ([1]; human, in vivo, po, 97.4 mg/m2): 4.0 (2.0–6.0) hr
- Mean (SD) AUCτ [1, 2]: 165.3 (82.98) ng•hr/mL
- Mean (SD) Cmax [1, 2]: 16.1 (2.35) ng/mL
- Mean (SD) t½ [1, 2]: 8.0 (2.92) hr
- Median (range) Tmax [1, 2]: 2.9 (1.5–4.0) hr
- Mean (SD) AUCτ [1, 3]: 201.7 (46.72) ng•hr/mL
- Mean (SD) Cmax [1, 3]: 24.3 (9.23) ng/mL
- Mean (SD) t½ [1, 3]: 9.9 (4.55) hr
- Median (range) Tmax [1, 3]: 3.9 (1.5–4.0) hr
- Mean (SD) AUCτ [1, 4]: 278.0 (69.45) ng•hr/mL
- Mean (SD) Cmax [1, 4]: 32.4 (8.40) ng/mL
- Mean (SD) t½ [1, 4]: 6.6 (1.51) hr
- Median (range) Tmax [1, 4]: 3.0 (1.3–6.0) hr
- Mean (SD) AUCτ [1, 5]: 763.7 (128.14) ng•hr/mL
- Mean (SD) Cmax [1, 5]: 98.1 (5.64) ng/mL
- Mean (SD) t½ [1, 5]: 12.3 (9.70) hr
- Median (range) Tmax [1, 5]: 2.0 (1.6–2.1) hr
- Mean (SD) AUCτ [1, 6]: 1,102.3 (734.79) ng•hr/mL
- Mean (SD) Cmax [1, 6]: 128.5 (98.34) ng/mL
- Mean (SD) t½ [1, 6]: 5.4 (1.20) hr
- Median (range) Tmax [1, 6]: 4.0 (1.5–4.0) hr
- Mean (SD) AUCτ [1, 7]: 2,923.5 (2,939.79) ng•hr/mL
- Mean (SD) Cmax [1, 7]: 218.8 (130.35) ng/mL
- Mean (SD) t½ [1, 7]: 8.7 (5.74) hr
- Median (range) Tmax [1, 7]: 4.5 (2.0–8.0) hr
- Mean (SD) AUCτ [1, 8]: 3,256.0 (1,816.44) ng•hr/mL
- Mean (SD) Cmax [1, 8]: 412.6 (93.94) ng/mL
- Mean (SD) t½ [1, 8]: 10.3 (6.33) hr
- Median (range) Tmax [1, 8]: 2.1 (1.7–3.1) hr
- Mean (SD) AUCτ [1, 9]: 4,313.3 (1,091.33) ng•hr/mL
- Mean (SD) Cmax [1, 9]: 320.7 (75.09) ng/mL
- Mean (SD) t½ [1, 9]: 12.8 (4.32) hr
- Median (range) Tmax [1, 9]: 5.2 (3.0–8.0) hr
- Mean (SD) AUCτ [1, 10]: 9,429.0 (3,993.74) ng•hr/mL
- Mean (SD) Cmax [1, 10]: 713.0 (30.38) ng/mL
- Mean (SD) t½ [1, 10]: 13.9 (9.48) hr
- Median (range) Tmax [1, 10]: 3.3 (3.1–3.5) hr
- Mean (SD) AUCτ [1, 11]: 23,565.0 (0) ng•hr/mL
- Mean (SD) Cmax [1, 11]: 1,481.5 (0) ng/mL
- Mean (SD) t½ [1, 11]: 14.7 (0) hr
- Median (range) Tmax [1, 11]: 8.0 (8.0–8.0) hr
- Mean (SD) Robs (observed accumulation ratio) ([1]; oral once daily, 3.0 mg/m^2, n = 3): 1.3 (0.62)
- Mean (SD) Robs (observed accumulation ratio) ([1]; oral once daily, 4.2 mg/m^2, n = 3): 1.8 (0.64)
- Mean (SD) Robs (observed accumulation ratio) ([1]; oral once daily, 5.9 mg/m^2, n = 5): 1.5 (0.59)
- Mean (SD) Robs (observed accumulation ratio) ([1]; oral once daily, 11.8 mg/m^2, n = 3): 1.5 (0.15)
- Mean (SD) Robs (observed accumulation ratio) ([1]; oral once daily, 19.7 mg/m^2, n = 3): 1.2 (0.29)
- Mean (SD) Robs (observed accumulation ratio) ([1]; oral once daily, 29.6 mg/m^2, n = 4): 1.1 (1.24)
- Mean (SD) Robs (observed accumulation ratio) ([1]; oral once daily, 41.4 mg/m^2, n = 3): 1.3 (0.46)
- Mean (SD) Robs (observed accumulation ratio) ([1]; oral once daily, 55.0 mg/m^2, n = 4): 1.9 (0.19)
- Mean (SD) Robs (observed accumulation ratio) ([1]; oral once daily, 73.0 mg/m^2, n = 3): 1.9 (0.14)
- Mean (SD) AUC0-24 [1, 12]: 127.0 (16.09) ng•hr/mL
- Mean (SD) Cmax [1, 12]: 13.7 (6.14) ng/mL
- Mean (SD) t½ [1, 12]: 8.0 (2.82) hr
- Median (range) Tmax [1, 12]: 6.0 (2.0–6.1) hr
- Mean (SD) Rpred (predicted accumulation ratio) [1, 12]: 1.2 (0.15)
- Mean (SD) AUC0-24 [1, 13]: 119.3 (14.36) ng•hr/mL
- Mean (SD) Cmax [1, 13]: 16.8 (4.88) ng/mL
- Mean (SD) t½ [1, 13]: 7.8 (3.69) hr
- Median (range) Tmax [1, 13]: 4.0 (1.0–6.0) hr
- Mean (SD) Rpred (predicted accumulation ratio) [1, 13]: 1.2 (0.12)
- Mean (SD) AUC0-24 [1, 14]: 194.8 (66.56) ng•hr/mL
- Mean (SD) Cmax [1, 14]: 26.0 (6.53) ng/mL
- Mean (SD) t½ [1, 14]: 5.9 (1.06) hr
- Median (range) Tmax [1, 14]: 2.1 (1.5–4.0) hr
- Mean (SD) Rpred (predicted accumulation ratio) [1, 14]: 1.1 (0.05)
- Mean (SD) AUC0-24 [1, 15]: 516.7 (125.82) ng•hr/mL
- Mean (SD) Cmax [1, 15]: 84.9 (23.01) ng/mL
- Mean (SD) t½ [1, 15]: 6.0 (3.66) hr
- Median (range) Tmax [1, 15]: 1.6 (1.5–3.0) hr
- Mean (SD) Rpred (predicted accumulation ratio) [1, 15]: 1.1 (0.12)
- Mean (SD) AUC0-24 [1, 16]: 874.0 (357.79) ng•hr/mL
- Mean (SD) Cmax [1, 16]: 135.7 (76.46) ng/mL
- Mean (SD) t½ [1, 16]: 5.1 (1.33) hr
- Median (range) Tmax [1, 16]: 4.0 (1.0–4.3) hr
- Mean (SD) Rpred (predicted accumulation ratio) [1, 16]: 1.0 (0.06)
- Mean (SD) AUC0-24 [1, 17]: 2,376.3 (2,064.06) ng•hr/mL
- Mean (SD) Cmax [1, 17]: 266.9 (181.95) ng/mL
- Mean (SD) t½ [1, 17]: 8.5 (5.48) hr
- Median (range) Tmax [1, 17]: 2.3 (1.0–3.1) hr
- Mean (SD) Rpred (predicted accumulation ratio) [1, 17]: 1.2 (0.22)
- Mean (SD) AUC0-24 [1, 18]: 2,820.3 (2,070.39) ng•hr/mL
- Mean (SD) Cmax [1, 18]: 351.9 (94.39) ng/mL
- Mean (SD) t½ [1, 18]: 8.1 (4.54) hr
- Median (range) Tmax [1, 18]: 2.0 (1.0–4.0) hr
- Mean (SD) Rpred (predicted accumulation ratio) [1, 18]: 1.2 (0.21)
- Mean (SD) AUC0-24 [1, 19]: 2,274.0 (666.44) ng•hr/mL
- Mean (SD) Cmax [1, 19]: 251.9 (119.68) ng/mL
- Mean (SD) t½ [1, 19]: 9.5 (2.57) hr
- Median (range) Tmax [1, 19]: 3.0 (3.0–4.0) hr
- Mean (SD) Rpred (predicted accumulation ratio) [1, 19]: 1.2 (0.11)
- Mean (SD) AUC0-24 [1, 20]: 3,938.7 (1,965.70) ng•hr/mL
- Mean (SD) Cmax [1, 20]: 444.2 (149.44) ng/mL
- Mean (SD) t½ [1, 20]: 8.1 (2.19) hr
- Median (range) Tmax [1, 20]: 4.0 (3.0–4.1) hr
- Mean (SD) Rpred (predicted accumulation ratio) [1, 20]: 1.2 (0.10)
- Mean (SD) AUC0-24 [1, 21]: 5,767.0 (0) ng•hr/mL
- Mean (SD) Cmax [1, 21]: 751.2 (41.49) ng/mL
- Median (range) Tmax [1, 21]: 5.0 (2.0–8.0) hr
